One test concerns KB. Nature of the test: Cytotoxicity against human KB cells. The format is functional. To be noted: read-out: ED50 (the source's name).
The next test relates to P388. Description: Cytotoxicity against mouse P388 cells. To be noted: read-out: ED50 (the source's name). The format is functional.
Test [1] in a line: Cytotoxicity against human RPMI cells. Format: functional. The conditions noted are these: read-out: ED50 (the source's name).
For another test, the system named is TE-671. Nature of the test: Cytotoxicity against human TE671 cells. To be noted: read-out: ED50 (the source's name). The format is functional.
The test system of test [2] is A549. Nature of the test: Cytotoxicity against human A549 cells at 4 ug/ml. Format: functional, cell-based.
The test system of another test is HCT-8. Nature of the test: Cytotoxicity against human HCT8 cells at 4 ug/ml. Format: functional, cell-based.
Test [3] concerns A549. Nature of the test: Cytotoxicity against human A549 cells. The format is functional. The conditions noted are these: read-out: ED50 (the source's name).

Converted amounts (≈) assume the structure as drawn. The source made the active and inactive calls. The calls are words filed in the database; no cut-off is given here.

For `CC(=O)O[C@H]([C@H](O)c1ccccc1)[C@H]1CC=CC(=O)O1`, the EC50 (with KB; with P388; in test [1]; with TE-671) was < 0.1 µg/mL throughout. The result in the test on A549 [2] and in the test on HCT-8 was inactive.

For the compound `O=C1C=CC[C@H]([C@H](O)[C@H](O)c2ccccc2)O1` [GONIODIOL], the EC50 with A549 [3] was found to be 0.12 µg/mL (≈ 0.512 µM).
